{
  "source": "patent US20130101684A1",
  "about": "“Compounds, Compositions, And Methods For Reducing Or Eliminating Bitter Taste” (Chromocell Corporation, priority 2010, published 2013)",
  "type_in_all_cases": "in vivo, humans",
  "key": {"[1]": {"tested_on": "bitter taste of an aqueous solution of KCl", "assay": "Sip and spit taste test of aqueous KCl test solutions, bitterness rated 0-15 against KCl solution standards", "details": "aqueous KCl 4.85 g/L, 1% EtOH, human panel, vs KCl solution standard, dash = at none of the tested conc.", "procedure": "Edible KCl solution compositions (“KCl test solutions”) were prepared by first dissolving varying amounts of the test compounds in an amount of ethanol or water (depending on the solubility of the compound) to create a 5 mg/mL stock compound solution. An amount of this stock compound solution is then added to an aqueous KCl solution. Enough EtOH is then added to the resulting stock compound/KCl solution so that the final KCl test solution contains 1% EtOH. KCl solution standards were similarly prepared by dissolving various amounts of KCl in water and ethanol without adding any test compound. […] The effect of the test compounds on the perception of the bitter taste of an aqueous solution of KCl in humans was evaluated using a “sip and Spit” test as follows. A set of KCl solutions standards was developed and each standard solution was assigned a bitterness taste score of 0-15 (corresponding to aqueous KCl concentrations of 0 mM-120 mM). Panelists were trained to recognize these standards. In addition, before each day of testing, panelists were tested to see if they could determine differences in taste between the standard solutions, if a panelist was unable to recognize a change in KCl concentration, they were excluded from the panel for that day. In a blind taste test, panelists were asked to compare the bitter taste of a small quantity (e.g. 8 ml) of each of the KCl Test Solutions to the taste of a KCl solution standard, without swallowing (see, e.g., Table 1). Specifically, panelists were asked to rate the bitterness of each KCl Test Solution on a scale of 0-15 using the same scale developed for the KCl solution standards. Each sample was tested in 2-4 discrete taste test experiments. Panelists were asked to rinse with water, eat a cracker, and wait approximately 10 minutes between samples."}, "[2]": {"tested_on": "bitter taste of potassium lactate foodstuffs", "assay": "Two-alternative forced choice (2AFC) sip and spit test of potassium lactate turkey foodstuff slurries", "details": "turkey slurry with potassium lactate (KLac) 4.5%, 1% EtOH, 2AFC vs KLac slurry standard, dash = at none of the tested conc.; for minimal effective concentration: Homo sapiens", "procedure": "In a blind taste test, panelists received two portions of turkey slurry—one portion being the KCl foodstuff slurry standard and the other being one of the KCl test foodstuff slurries (each prepared as described in Example 5). The panelists tasted each of the portions by sipping and spitting. Each sample was tested in 2-4 discrete taste test experiments. Panelists were asked to rinse with water, eat a cracker, and wait about 10 minutes between samples. In each case, the panelists were asked to compare the bitter taste of the two turkey samples to each other (i.e. panelists were asked to indicate which sample was less bitter). Edible potassium lactate food compositions (“potassium lactate test foodstuff slurries”) were prepared as follows, Dehydrated, salt-free turkey powder was weighed and mixed with various amounts of potassium lactate and/or sodium lactate and then solubilized with boiling water to create a homogenized solubilized turkey slurry. Varying amounts of the test compounds were dissolved in an amount of ethanol or water (depending on the solubility of the compound) to create a 5 mg/mL stock compound solution. An amount of this stock compound solution was then added to the turkey slurry. Enough EtOH is then added to the resulting stock compound/turkey slurry so that the final slurry contains 1% EtOH. The final slurry was again homogenized by boiling and mixing and allowed to cool to yield the final slurry for taste testing. Potassium lactate foodstuff slurry standards were similarly prepared without any test compound. […] The effect of the test compounds on the perception of the bitter taste of potassium lactate foodstuffs in humans was evaluated using the two-alter native-forced-choice “sip and spit” test described in Example 6."}, "[3]": {"tested_on": "bitter taste of KCl foodstuff slurries", "assay": "Two-alternative forced choice (2AFC) sip and spit test of KCl turkey foodstuff slurries", "details": "turkey slurry with KCl 1.6%, 1% EtOH, 2AFC vs KCl slurry standard, dash = at none of the tested conc.; for minimal effective concentration: Homo sapiens", "procedure": "Edible KCl food compositions (“KCl test foodstuff slurries”) were prepared as follows. Dehydrated, salt-free turkey powder was weighed and mixed with various amounts of KCl and/or NaCl and then solubilized with boiling water to create a homogenized solubilized turkey slurry. Varying amounts of the test compounds were dissolved in an amount of ethanol or water (depending on the solubility of the compound) to create a 5 mg/mL stock compound solution. An amount of this stock compound solution was then added to the turkey slurry. Enough EtOH is then added to the resulting stock compound/turkey slurry so that the slurry contains 1% EtOH. The slurry was again homogenized by boiling and mixing and allowed to cool to yield the final KCl test foodstuff slurry for taste testing. KCl foodstuff slurry standards were similarly prepared without any test compound. […] The effect of the test compounds on the perception of the bitter taste of KCl foodstuff slurries in humans was evaluated using a two-alternative-forced-choice “sip and spit” test as follows. In a blind taste test, panelists received two portions of turkey slurry—one portion being the KCl foodstuff slurry standard and the other being one of the KCl test foodstuff slurries (each prepared as described in Example 5). The panelists tasted each of the portions by sipping and spitting. Each sample was tested in 2-4 discrete taste test experiments. Panelists were asked to rinse with water, eat a cracker, and wait about 10 minutes between samples. In each case, the panelists were asked to compare the bitter taste of the two turkey samples to each other (i.e. panelists were asked to indicate which sample was less bitter)."}, "[4]": {"tested_on": "bitter taste of an aqueous solution of potassium lactate", "assay": "Sip and spit taste test of aqueous potassium lactate test solutions", "details": "aqueous potassium lactate (KLac) 41 g/L, 1% EtOH, human panel, dash = at none of the tested conc.", "procedure": "A set of KCl solutions standards was developed and each standard solution was assigned a bitterness taste score of 0-15 (corresponding to aqueous KCl concentrations of 0 mM-120 mM). Panelists were trained to recognize these standards. In addition, before each day of testing, panelists were tested to see if they could determine differences in taste between the standard solutions, if a panelist was unable to recognize a change in KCl concentration, they were excluded from the panel for that day. In a blind taste test, panelists were asked to compare the bitter taste of a small quantity (e.g. 8 ml) of each of the KCl Test Solutions to the taste of a KCl solution standard, without swallowing (see, e.g., Table 1). Specifically, panelists were asked to rate the bitterness of each KCl Test Solution on a scale of 0-15 using the same scale developed for the KCl solution standards. Each sample was tested in 2-4 discrete taste test experiments. Panelists were asked to rinse with water, eat a cracker, and wait approximately 10 minutes between samples. Edible potassium lactate solution compositions (“potassium lactate test solutions”) were prepared by first dissolving varying amounts of the test compounds in an amount of ethanol or water (depending on the solubility of the compound) to create a 5 mg/mL stock compound solution. An amount of this stock compound solution is then added to an aqueous potassium lactate solution. Enough EtOH is then added to the resulting stock compound/potassium lactate solution so that the final potassium lactate test solution contains 1% EtOH. Potassium lactate solution standards were similarly prepared by dissolving various amounts of potassium lactate in water and ethanol without adding any test compound. […] The effect of the test compounds on the perception of the bitter taste of an aqueous solution of potassium lactate in humans was evaluated using the “sip and spit” test described in Example 2."}, "[5]": {"details": "read-out: Conc. at Which At Least 50% of Panelist Discerned Decrease in Bitter Taste and p ≦ 0.1"}, "[6]": {"details": "read-out: Conc. Where Decrease in Bitter Taste Discerned and p ≦ 0.1"}, "[7]": {"details": "read-out: Conc. Where Decrease in Bitter Taste Was Discerned"}, "[8]": {"details": "read-out: Conc. at Which At Least 50% of Panelist Discerned Decrease in Bitter Taste"}},
  "note": "Like-named read-outs stand apart in the source and are kept apart here.",
  "data": [
    {"smiles": "CCn1ncc(Br)c1C(=O)Nc1ccccc1C(=O)OC", "note": "[Compound 23]", "values": [
      {"measurement": "Conc. Where Decrease in Bitter Taste Discerned and p ≦ 0.1", "setting": "[1]", "result": 40, "unit": "ppm"},
      {"measurement": "Conc. Where Decrease in Bitter Taste Was Discerned", "setting": "[1]", "result": 40, "unit": "ppm"},
      {"measurement": "Conc. at Which At Least 50% of Panelist Discerned Decrease in Bitter Taste and p ≦ 0.1", "setting": "[2]", "result": 1, "unit": "ppm"}
    ]},
    {"smiles": "COC(=O)c1ccccc1NC(=O)c1c(I)cnn1C", "note": "[Compound 24]", "values": [
      {"measurement": "minimal effective concentration", "setting": "[3]; [5]", "result": 10, "unit": "µg/mL"},
      {"measurement": "minimal effective concentration", "setting": "[2]; [5]", "result": 30, "unit": "µg/mL"}
    ]},
    {"smiles": "CCn1cc(Br)c(C(=O)Nc2ccccc2C(=O)OC)n1", "note": "[Compound 25]", "values": [
      {"measurement": "minimal effective concentration", "setting": "[4]; [6]", "result": 10, "unit": "µg/mL"},
      {"measurement": "minimal effective concentration", "setting": "[4]; [7]", "result": 10, "unit": "µg/mL"},
      {"measurement": "minimal effective concentration", "setting": "[2]; [8]", "result": 1, "unit": "µg/mL"}
    ]},
    {"smiles": "CCOC(=O)c1ccccc1NC(=O)c1c(Cl)cnn1C", "note": "[Compound 26]", "values": [
      {"measurement": "minimal effective concentration", "setting": "[4]; [6]", "result": 1, "unit": "µg/mL"},
      {"measurement": "minimal effective concentration", "setting": "[3]; [5]", "result": 1, "unit": "µg/mL"},
      {"measurement": "minimal effective concentration", "setting": "[2]; [8]", "result": 30, "unit": "µg/mL"}
    ]},
    {"smiles": "O=C(O)c1cccc2c1NC(c1cccc(Br)c1)C1CC=CC21", "note": "(stereo not drawn) [Compound 37]", "values": [
      {"measurement": "minimal effective concentration", "setting": "[1]; [6]", "result": 1, "unit": "µg/mL"},
      {"measurement": "minimal effective concentration", "setting": "[1]; [7]", "result": 1, "unit": "µg/mL"},
      {"measurement": "minimal effective concentration", "setting": "[2]; [5]", "result": 10, "unit": "µg/mL"}
    ]},
    {"smiles": "COC(=O)c1cccc2c1NC(c1ccc(Cl)cc1Cl)C1CC=CC21", "note": "(stereo not drawn) [Compound 38]", "values": [
      {"measurement": "minimal effective concentration", "setting": "[1]; [6]", "result": 1, "unit": "µg/mL"},
      {"measurement": "minimal effective concentration", "setting": "[1]; [7]", "result": 1, "unit": "µg/mL"},
      {"measurement": "minimal effective concentration", "setting": "[2]; [8]", "result": 30, "unit": "µg/mL"}
    ]},
    {"smiles": "CCCC(=O)Nc1ccc(OC)c(Cl)c1", "note": "[Compound 49]", "values": [
      {"measurement": "minimal effective concentration", "setting": "[1]; [6]", "result": 30, "unit": "µg/mL"},
      {"measurement": "minimal effective concentration", "setting": "[1]; [7]", "result": 30, "unit": "µg/mL"},
      {"measurement": "minimal effective concentration", "setting": "[4]; [6]", "result": 30, "unit": "µg/mL"},
      {"measurement": "minimal effective concentration", "setting": "[4]; [7]", "result": 30, "unit": "µg/mL"},
      {"measurement": "minimal effective concentration", "setting": "[3]; [8]", "result": 1, "unit": "µg/mL"},
      {"measurement": "minimal effective concentration", "setting": "[3]; [5]", "result": 1, "unit": "µg/mL"},
      {"measurement": "minimal effective concentration", "setting": "[2]; [8]", "result": 30, "unit": "µg/mL"},
      {"measurement": "minimal effective concentration", "setting": "[2]; [5]", "result": 30, "unit": "µg/mL"}
    ]},
    {"smiles": "CCC(=O)Nc1ccc(OC)c(Cl)c1", "note": "[Compound 51]", "values": [
      {"measurement": "minimal effective concentration", "setting": "[1]; [6]", "result": 15, "unit": "µg/mL"},
      {"measurement": "minimal effective concentration", "setting": "[1]; [7]", "result": 15, "unit": "µg/mL"},
      {"measurement": "minimal effective concentration", "setting": "[2]; [8]", "result": 10, "unit": "µg/mL"}
    ]},
    {"smiles": "Cc1ccc(NC(=O)CCOc2ccccc2)cc1Cl", "note": "[Compound 53]", "values": [
      {"measurement": "Conc. Where Decrease in Bitter Taste Discerned and p ≦ 0.1", "setting": "[1]", "result": 25, "unit": "ppm"},
      {"measurement": "Conc. Where Decrease in Bitter Taste Was Discerned", "setting": "[1]", "result": 25, "unit": "ppm"},
      {"measurement": "Conc. Where Decrease in Bitter Taste Discerned and p ≦ 0.1", "setting": "[4]", "result": 1, "unit": "ppm"},
      {"measurement": "Conc. Where Decrease in Bitter Taste Was Discerned", "setting": "[4]", "result": 1, "unit": "ppm"},
      {"measurement": "Conc. at Which At Least 50% of Panelist Discerned Decrease in Bitter Taste", "setting": "[3]", "result": 30, "unit": "ppm"},
      {"measurement": "Conc. at Which At Least 50% of Panelist Discerned Decrease in Bitter Taste and p ≦ 0.1", "setting": "[3]", "result": 30, "unit": "ppm"},
      {"measurement": "Conc. at Which At Least 50% of Panelist Discerned Decrease in Bitter Taste", "setting": "[2]", "result": 30, "unit": "ppm"}
    ]},
    {"smiles": "Cc1ccc(NC(=O)C2COc3ccccc3O2)cc1Cl", "note": "(stereo not drawn) [Compound 56]", "values": [
      {"measurement": "Conc. Where Decrease in Bitter Taste Discerned and p ≦ 0.1", "setting": "[1]", "result": 1, "unit": "ppm"},
      {"measurement": "Conc. Where Decrease in Bitter Taste Discerned and p ≦ 0.1", "setting": "[4]", "result": 10, "unit": "ppm"},
      {"measurement": "Conc. at Which At Least 50% of Panelist Discerned Decrease in Bitter Taste", "setting": "[2]", "result": 1, "unit": "ppm"},
      {"measurement": "Conc. at Which At Least 50% of Panelist Discerned Decrease in Bitter Taste and p ≦ 0.1", "setting": "[2]", "result": 1, "unit": "ppm"}
    ]}
  ]
}
